Like-named read-outs stand apart in the source and are kept apart here.
Assays:
Assay type in all cases: cell-based
[1] = test system: Plasmodium falciparum; assay: Plasmodium falciparum Assay; settings: 3-H-hypoxanthine incorporation, 48 hours, read-out: Plasmodium IC50 ± SD
Procedure: The experiments in which compounds were tested for their ability to inhibit parasite growth were performed by a modification of the method originally described by Jensen et al. (1982). 50 μl of parasitized erythrocytes (parasitemia approximately 1%) in a concentration of 5×10^8/ml and 50 μl of RPMI medium containing different concentrations of the test compound was added to each well of a 96 well flat-bottomed microtiter plate. The cultures were then incubated for 48 hours, 24 hours before termination of the culture adding 20 μl of 3-H-hypoxanthine (40 uCi/ml) was added to each well. The cultures were then harvested onto glass fiber filters using a Skatron cell harvester, and the incorporation of 3-H-hypoxanthine into the DNA of dividing parasites was determined by liquid scintillation spectrometry. Control cultures with uninfected erythrocytes and infected erythrocytes in RPMI medium without test compounds were always performed in parallel to the test cultures. In some experiments thin smears of parasite cultures were stained by Giemsa and examined under microscope (×1000). The test compounds described above, were diluted in RPMI medium immediately before use. In the experiments, chloroquine phosphate was used as a positive control as a drug known to inhibit parasite growth.

[2] = test system: human lymphocytes; assay: Lymphocyte Proliferation Assay; settings: read-out: Lymphocytes IC50 ± SD
Procedure: Human blood mononuclear cells (BMNC) from heparinized blood were isolated by metrizoate sodium-Ficoll density gradient centrifugation, washed 3 times in RPMI 1640 medium supplemented with 5% FCS and with 400 IU of penicillin plus 400 μg/ml streptomycin. BMNC were resuspended in the medium and cultured in triplicate, 0.63×10^5/ml and 160 μl per vial, in round-bottom microtiter plates with 20 μl of various concentrations of the test compound. Immediately prior to incubation, optimum concentrations of the mitogen phytohaemagglutinin (PHA) and the antigen purified protein derivative of tuberculin (PPD) were added to the cultures in a volume of 20 μl. Unstimulated control cultures were always included. Cultures were incubated for 3 or 7 days. The degree of lymphocyte proliferation was estimated by ^3H-thymidine (1 μCi per well) addition 24 h before the cells were harvested on glass fiber filters by means of a harvesting machine), and ^3H-thymidine incorporation was measured in a liquid scintillation counter. For each set of triplicate values, the median was recorded. Unstimulated cultures were always included as controls.

[3] = test system: Leishmania promastigotes; assay: Leishmania promastigotes Assay; settings: read-out: Leishmania IC50 ± SD
Procedure: A WHO reference vaccine strain of L. major originally isolated from a patient in Iran and a Kenyan strain of L. donovani (MHOM(/KE/85/NLB 274) were cultured in medium 199 containing 0.02 mg/ml gentamycin, 25 mM Hepes, 4 mM L-glutamine, and 20% heat inactivated fetal calf serum (FCS). Incubation was carried out at 26° C. Promastigotes were harvested on day 3 and 6 of the culture and used for the parasite growth inhibition.
The effect of the test compounds on promastigotes was assessed by a method similar to the one described by Pearson et al., by incubating promastigotes (3×10^6/ml) at 26° C. for 2 hrs in the presence of a given compound or the medium alone in 96 wells flat bottom microtiter plates. Following incubation, 100 μCi of 3H-thymidine was added to each well and further incubated for 18 hrs. Promastigotes were then harvested on filter paper by means of a cell harvester, extensively washed with distilled water and counted in a scintillation counter. The promastigotes were also counted microscopically and their flagellar motility was assessed.

[4] = Lymphocyte, PHA provoked proliferation of human lymphocytes
[5] = Leishmania, promastigotes, 3H-thymidine uptake
[6] = PHA provoked proliferation of human lymphocytes
[7] = promastigotes, 3H-thymidine uptake

SMILES	IC50 [3, 5] [µM]	IC50 [1] [µM]	IC50 [2, 6] [µM]	IC50 [3, 7] [µM]	other results
COc1cccc(/C=C/C(=O)c2ccc(O)cc2)c1OC [2,3-OCH3-4′-OH, 2,3-dimethoxy-4′-hydroxychalcone]	89 ± 9	–	–	–	IC50 ([1]; Plasmodium falciparum): 25 µM; IC50 [2, 4]: 70 ± 4 µM
C=CCOc1ccc(C(=O)/C=C/c2cccc(OC)c2OC)cc1 [2,3-OCH3-4′-allyloxy]	–	26	96 ± 6	49 ± 3	–
COc1ccc(/C=C/C(=O)c2ccccc2OC)c(OC)c1 [2,4,2′-OCH3]	–	–	26 ± 2	16 ± 1	–
COc1cc(OC)c(OC)cc1/C=C/C(=O)c1ccc(O)cc1 [2,4,5,-OCH3-4′-OH]	–	13	28 ± 2	16 ± 2	–
COc1cc(OC)c(/C=C/C(=O)c2ccc(O)cc2)c(OC)c1 [2,4,6-OCH3-4′-OH]	–	–	44 ± 2	106 ± 8	–
COc1ccc(/C=C/C(=O)c2ccccc2O)c(OC)c1 [2,4-OCH3-2′-OH]	–	28	144 ± 9	35 ± 2	–
C=CCOc1ccccc1C(=O)/C=C/c1ccc(OC)cc1OC [2,4-OCH3-2′-allyloxy]	–	–	–	5 ± 0.7	–
CCCCOc1ccc(C(=O)/C=C/c2ccc(OC)cc2OC)cc1 [2,4-OCH3-4′-OC4H9, 2,4-dimethoxy-4′-butoxychalcone]	95 ± 10	–	–	–	–
CCCCCCOc1ccc(C(=O)/C=C/c2ccc(OC)cc2OC)cc1 [2,4-OCH3-4′-OC6H13]	–	14	–	136 ± 15	–
COc1ccc(/C=C/C(=O)c2ccccc2)c(OC)c1 [2,4-OCH3]	–	34	48 ± 2	15	–
C=CCOc1ccc(C(=O)/C=C/c2cc(OCC=C)ccc2OCC=C)cc1 [2,5,4′-allyloxy]	–	–	61 ± 3	38 ± 2	–
COc1ccc(OC)c(/C=C/C(=O)c2ccc(O)cc2)c1 [2,5-OCH3-4′-OH, 2,5-dimethoxy-4′hydroxychalcone]	23 ± 2	–	–	–	IC50 [2, 4]: 22 ± 1 µM
C=CCOc1ccc(C(=O)/C=C/c2cc(OC)ccc2OC)cc1 [2,5-OCH3-4′-allyloxy]	–	23	55 ± 2	73 ± 4	–
CCCCOc1ccc(C(=O)/C=C/c2c(OC)cccc2OC)cc1 [2,6-OCH3-4′-OC4H9, 2,6-dimethoxy-4′-butoxychalcone]	104 ± 9	–	–	–	IC50 ([1]; Plasmodium falciparum): 14 µM; IC50 [2, 4]: 127 ± 10 µM
COc1cccc(OC)c1/C=C/C(=O)c1ccc(O)cc1 [2,6-OCH3-4′-OH]	–	–	60 ± 2	82 ± 8	–
C=CCOc1ccc(C(=O)/C=C/c2c(OC)cccc2OC)cc1 [2,6-OCH3-4′-allyloxy]	–	–	96 ± 8	81 ± 7	–
COc1c(/C=C/C(=O)c2ccc(O)cc2)ccc(O)c1C [2-OCH3-3-methyl-4,4′-OH, 2-methoxy-3-methyl-4,4′-dihydroxychalcone]	22 ± 3	–	–	–	IC50 ([1]; Plasmodium falciparum): 33 µM; IC50 [2, 4]: 27 ± 4 µM
COc1cc(O)ccc1/C=C/C(=O)c1ccc(O)cc1 [2-OCH3-4,4′-OH, 2-methoxy-4,4′-dihydroxychalcone]	68 ± 4	–	–	–	IC50 ([1]; Plasmodium falciparum): 19 µM; IC50 [2, 4]: 94 ± 4 µM
CCCCCCc1cc(/C=C/C(=O)c2ccc(O)cc2)c(OC)cc1O [2-OCH3-4,4′-OH-5-hexyl, 2-methoxy-4,4′-dihydroxy-5-hexylchalcone]	9.7 ± 0.9	–	–	–	IC50 ([1]; Plasmodium falciparum): 5.1 µM; IC50 [2, 4]: 46 ± 3 µM

SMILES	IC50 [3, 5] [µM]	IC50 [1] [µM]	IC50 [2, 6] [µM]	IC50 [3, 7] [µM]	other results
CCCc1cc(/C=C/C(=O)c2ccc(O)cc2)c(OC)cc1O [2-OCH3-4,4′-OH-5-propyl, 2-methoxy-4,4′-dihydroxy-5-propylchalcone]	26 ± 2	–	–	–	IC50 ([1]; Plasmodium falciparum): 10 µM; IC50 [2, 4]: 41 ± 3 µM
COc1cc(O)cc(C)c1/C=C/C(=O)c1ccc(O)cc1 [2-OCH3-4,4′-OH-6-methyl, 2-methoxy-4,4′-dihydroxy-6-methylchalcone]	39 ± 5	–	–	–	IC50 ([1]; Plasmodium falciparum): 28 µM; IC50 [2, 4]: 53 ± 6 µM
COc1cc(O)ccc1/C=C/C(=O)c1ccc(N(C)C)cc1 [2-OCH3-4-OH-4′-N(CH3)2]	–	23	111 ± 7	49 ± 4	–
COc1ccc(C(=O)/C=C/c2ccc(Cl)cc2Cl)c(OC)c1OC [2′,3′,4′-OCH3-2,4-Cl]	–	7.9	7.8 ± 0.9	6.3 ± 0.6	–
O=C(/C=C/c1ccc(O)c(O)c1)c1ccc(O)cc1O [2′,4′,3,4-OH]	–	49	16 ± 1	66 ± 2	–
COc1cc(/C=C/C(=O)c2ccc(O)cc2O)ccc1O [2′,4′,4-OH-3-OCH3]	–	43	31 ± 2	16 ± 2	–
COc1ccc(/C=C/C(=O)c2ccc(F)cc2F)c(OC)c1 [2′,4′-F-2,4-OCH3]	–	49	74 ± 4	26 ± 2	–
COc1ccc(C(=O)/C=C/c2ccc(F)c(F)c2)c(OC)c1 [2′,4′-OCH3-3,4-F]	–	10	5.3 ± 0.6	16 ± 1	–
COc1ccc(OC)c(C(=O)/C=C/c2ccc(Cl)cc2Cl)c1 [2′,5′-OCH3-2,4-Cl]	–	–	5.7 ± 0.5	7.8 ± 0.7	–
COc1ccc(/C=C/C(=O)c2ccccc2Br)c(OC)c1 [2′-Br-2,4-OCH3, 2,4-dimethoxy-2′-bromochalcone]	14 ± 2	–	–	–	IC50 ([1]; Plasmodium falciparum): 26 µM; IC50 [2, 4]: 35 ± 3 µM
C=CCOc1ccc(C(=O)/C=C/c2cc(OC)c(OC)c(OC)c2)cc1 [3,4,5-OCH3-4′-allyloxy]	–	–	30 ± 1	41 ± 4	–
CCCCOc1ccc(C(=O)/C=C/c2cc(OC)cc(OC)c2)cc1 [3,5-OCH3-4′-OC4H9]	–	17	52 ± 3	35 ± 3	–
COc1cc(/C=C/C(=O)c2ccc(O)cc2)cc(OC)c1 [3,5-OCH3-4′-OH]	–	25	14 ± 1	12 ± 1	–
C=CCOc1ccc(C(=O)/C=C/c2cc(OC)c(CCCC)c(OC)c2)cc1 [4-C4H9-3,5-OCH3-4′-allyloxy, 4-butyl-3,5-dimethoxy-4′-(2-propenyloxy)chalcone]	90 ± 14	–	–	–	–
CN(C)c1ccc(/C=C/C(=O)c2ccc(O)cc2)cc1 [4-N(CH3)2-4′-OH]	–	–	130 ± 13	79 ± 6	–
O=C(/C=C/c1ccc([N+](=O)[O-])cc1)c1ccc([N+](=O)[O-])cc1 [4′,4-NO2, 4,4′-dinitro-chalcone]	–	–	–	–	IC50 ([2]; Homo sapiens, Lymphocyte): 51 ± 3 µM; IC50 ([3]; Leishmania): 26 ± 4 µM
CN(C)c1ccc(C(=O)/C=C/c2ccc([N+](=O)[O-])cc2)cc1 [4′-N(CH3)2-4-NO2, 4-nitro-4′-dimethylaminochalcone]	–	–	–	–	IC50 ([1]; Plasmodium falciparum): 93 µM
O=C(/C=C/c1ccc(F)cc1)c1ccc(C2CCCCC2)cc1 [4′-cC6H11-4-F, 4-fluoro-4′-cyclohexylchalcone]	27 ± 2	–	–	–	IC50 [2, 4]: 74 ± 2 µM

— patent US20030065039A1, “Biologically active 1,3-bis-aromatic-prop-2-en-1-ones, 1,3-bis-aromatic-propan-1-ones, and 1,3-bis-aromatic-prop-2-yn-1-ones” (Statens Serum Institute, priority 1997, published 2003)
